Test results as given in US8119694B2, “High concentration local anesthetic formulations” (priority 2008, dated 2012).

Experiment: Compatibility study of drug at 40% w/w in solvent blends
Format: physicochemical
Conditions: two week samples at accelerated conditions versus initial samples
Method: The solubility and compatibility of lidocaine and lidocaine HCl in solvents typically used in topical pharmaceutical products was assessed in order to direct the formulation development efforts.
Initially, the solubility of lidocaine and lidocaine hydrochloride was evaluated in single solvents with varying lipophilicity. […] Based on the single solvent data, a compatibility study was initiated to evaluate the chemical stability of the drug at a concentration of 40% w/w in a variety of solvent blends that would form the base of potential prototype gel or cream formulations.

CCN(CC)CC(=O)Nc1c(C)cccc1C [lidocaine]
chemical compatibility (potency) in solvent blends: absence of a drop in potency
